Test results: patent publication US5118811A, “Amino acid derivatives possessing prolyl endopeptidase-inhibitory activities” (Japan Tobacco Inc., priority 1989, dated 1992)

Columns and labels:
prolyl endopeptidase = target: T1, prolyl endopeptidase (Rattus norvegicus, UniProt O70196); assay: Prolyl Endopeptidase-Inhibitory Activity; type: biochemical; details: for inhibition at 1 µM: 1 × 10^-6 M, read-out: Inhibition rate, prolyl endopeptidase; for IC50: prolyl endopeptidase extracted from rat brain, pH 7.0, 30° C., preincubated 30 minutes, 1 hour
T1 construct: prolyl endopeptidase extracted from rat brain; from tissue; host or cells: rat brain
T1 sequence (O70196 whole entry): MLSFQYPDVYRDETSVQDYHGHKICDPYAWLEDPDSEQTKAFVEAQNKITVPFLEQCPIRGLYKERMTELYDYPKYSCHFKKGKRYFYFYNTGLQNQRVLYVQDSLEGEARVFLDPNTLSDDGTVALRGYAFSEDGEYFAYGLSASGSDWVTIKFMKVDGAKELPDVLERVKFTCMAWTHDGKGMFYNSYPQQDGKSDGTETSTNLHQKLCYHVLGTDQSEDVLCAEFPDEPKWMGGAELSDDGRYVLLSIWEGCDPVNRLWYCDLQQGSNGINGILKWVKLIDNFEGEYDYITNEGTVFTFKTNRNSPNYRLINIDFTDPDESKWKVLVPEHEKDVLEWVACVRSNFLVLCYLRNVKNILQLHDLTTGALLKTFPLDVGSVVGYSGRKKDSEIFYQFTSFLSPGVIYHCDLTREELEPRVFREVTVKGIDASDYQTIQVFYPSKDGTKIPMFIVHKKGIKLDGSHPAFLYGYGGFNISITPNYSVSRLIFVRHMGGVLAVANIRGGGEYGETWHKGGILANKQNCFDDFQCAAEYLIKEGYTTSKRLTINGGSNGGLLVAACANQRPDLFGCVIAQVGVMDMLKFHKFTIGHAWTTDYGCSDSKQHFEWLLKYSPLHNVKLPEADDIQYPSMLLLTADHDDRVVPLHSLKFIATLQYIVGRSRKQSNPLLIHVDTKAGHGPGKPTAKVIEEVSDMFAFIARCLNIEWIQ
Experimental: A mixture of a 0.1M potassium sodium phosphate buffer (pH 7.0) (2675 μl), a solution of the compounds of the present invention in a 0.1M potassium sodium phosphate buffer (pH 7.0) (100 μl) and a solution of prolyl endopeptidase extracted from rat brain in a 25 mM sodium phosphate buffer (100 μl) [123 unit/1, pH 6.8, containing 1 mM dithiothreitol and 0.5 mM EDTA, prepared by the method described in J. Neurochem., 35, 527 (1980)] was preincubated at 30° C. for 30 minutes. Thereto was added a 0.2 mM solution of 7-(N-succinyl-glycyl-prolyl)-4-methylcoumarinamide (Peptide Institute, INC.) in a 0.1M potassium sodium phosphate buffer (pH 7.0) (125 μl), and the mixture was incubated at 30° C. for 1 hour. The reaction mixture was immersed in ice (0° C.) to terminate the reaction, and the fluorescence (a1) was determined ten minutes later (excitation at 370 nm and emission at 440 nm). Concurrently, there were conducted the experiment wherein, in the above system, the prolyl endopeptidase solution was substituted for a 25 mM sodium phosphate buffer (pH 6.8, containing 1 mM dithiothreitol and 0.5 mM EDTA) and the experiment wherein the solution of the compounds of the present invention was also substituted for a 0.1M potassium sodium phosphate buffer (pH 7.0). Each fluorescence (a2 and a3) was also determined respectively [See Tanpakushitsu Kakusan Koso, 29, 127 (1984)]. The prolyl endopeptidase-inhibition rate was calculated by the following formula, and IC50, a concentration of a compound producing 50% inhibition, was estimated by semilogarithmic graph paper. [formula]

trypsin = target: T2, trypsin (Bos taurus, UniProt P00760); assay: Trypsin-Inhibitory Activity; type: biochemical, bovine; details: 1 × 10^-6 M; read-out: Inhibition rate, trypsin
T2 construct: purchased Sigma; host or cells: bovine pancreas
T2 sequence (P00760 24-246): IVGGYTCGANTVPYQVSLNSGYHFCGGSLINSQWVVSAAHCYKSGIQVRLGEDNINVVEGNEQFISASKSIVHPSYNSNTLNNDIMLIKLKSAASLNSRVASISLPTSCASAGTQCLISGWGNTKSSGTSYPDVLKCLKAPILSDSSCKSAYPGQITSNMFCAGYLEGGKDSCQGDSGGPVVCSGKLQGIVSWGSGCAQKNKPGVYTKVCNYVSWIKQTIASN
Experimental: In the present invention, a 50 mM Tris-HCl buffer (pH 8.0) was employed as a buffer for measurement.
To a mixture of the above-mentioned buffer (850 μl), a solution of the compounds of the present invention in the same buffer (50 μl) and a 0.02 μM solution of trypsin (derived from bovine pancreas, Sigma) in the same buffer (50 μl) was added a 200 μM solution of 7-(prolyl-phenylaranyl-arginyl)-4-methylcoumarinamide (Peptide Institute, Inc.) in the same buffer (50 μl), and the mixture was incubated at 30° C. for 1 hour. The reaction mixture was immersed in ice (0° C.) to terminate the reaction, and the fluorescence (b1) was determined 1 hour later (excitation at 370 nm and emission at 440 nm). Concurrently, there were conducted the experiment wherein, in the system above, the trypsin solution was substituted for a buffer alone, and the experiment wherein the solution of the compounds of the present invention was also substituted for a buffer above. Each fluorescence (b2 and b3) was also determined respectively.
(§1) Using the fluorescence x1, x2 and x3 measured in the above-mentioned manner, the inhibitory rate against various proteases was calculated by the following formula where x stands for b, c, d, e or f: [formula]

chymotrypsin = target: T3, chymotrypsin (Bos taurus, UniProt P00766); assay: Chymotrypsin-Inhibitory Activity; type: biochemical, bovine; details: 1 × 10^-6 M; read-out: Inhibition rate, chymotrypsin
T3 construct: purchased Sigma; host or cells: bovine pancreas
Experimental: (§2) Similarly, by following the procedure mentioned above, but employing a 50 mM Tris-HCl buffer (pH 8.0) as a buffer for measurement, a 0.2 μM solution of chymotrypsin (derived from bovine pancrease, Sigma) in the same buffer as an enzyme solution and a 200 μM solution of 7-(N-succinyl-leucyl-leucyl-valyl-tyrosyl)-4-methylcoumarinamide (Peptide Institute, Inc.) in the same buffer as a substrate solution. Each fluorescence (c1, c2 and c3) was also determined, respectively.
as §1

leucine aminopeptidase = assay: Leucine Aminopeptidase-Inhibitory Activity; type: biochemical, swine; details: 1 × 10^-6 M
Experimental: as §2, with “leucine aminopeptidase” for “chymotrypsin”, “swine kidney,” for “bovine pancrease,”, “7-(leucyl-4-methylcoumarinamide” for “7-(N-succinyl-leucyl-leucyl-valyl-tyrosyl)-4-methylcoumarinamide”, “(d1, d2” for “(c1, c2”, “d3)” for “c3)”
as §1

elastase = target: T4, elastase (Sus scrofa, UniProt P00772); assay: Elastase-Inhibitory Activity; type: biochemical, swine; details: 1 × 10^-6 M; read-out: Inhibition rate, elastase
T4 construct: purchased Sigma; host or cells: swine pancreas
T4 sequence (P00772 27-266): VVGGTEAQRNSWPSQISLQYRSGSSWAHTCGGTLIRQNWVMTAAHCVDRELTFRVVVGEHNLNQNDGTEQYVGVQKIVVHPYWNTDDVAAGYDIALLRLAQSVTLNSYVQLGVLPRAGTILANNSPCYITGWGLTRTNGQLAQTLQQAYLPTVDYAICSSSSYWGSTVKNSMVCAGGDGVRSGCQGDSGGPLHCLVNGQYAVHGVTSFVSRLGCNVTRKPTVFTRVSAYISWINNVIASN
Experimental: Similarly, by following the procedure mentioned above, but employing a 1 mM Tris-HCl buffer (pH 8.5) as a buffer for measurement, a 0.2 μM solution of elastase (derived from swine pancreas, Sigma) in the same buffer as an enzyme solution and a 200 μM solution of 7-(N-succinyl-aranyl-prolyl-aranyl)-4-methylcoumarinamide (Peptide Institute, Inc.) in the same buffer as a substrate solution. Each fluorescence (e1, e2 and e3) was also determined, respectively.
as §1

cathepsin B = target: T5, cathepsin B (Bos taurus, UniProt P07688); assay: Cathepsin B-Inhibitory Activity; type: biochemical, bovine; details: 1 × 10^-6 M; read-out: Inhibition rate, cathepsin B
T5 construct: purchased Sigma; host or cells: bovine spleen
Experimental: Similarly, by following the procedure mentioned above, but employing a 100 mM sodium phosphate buffer (pH 6.0; containing 1.33 mM EDTA Na2) as a buffer for measurement, a 0.02 μM solution of cathepsin B (derived from bovine spleen, Sigma) in the same buffer as an enzyme solution and a 200 μM solution of 7-(N-benzyloxycarbonyl-phenylaranyl-arginyl)-4-methylcoumarinamide (Peptide Institute, Inc.) in the same buffer as a substrate solution. Each fluorescence (f1, f2 and f3) was also determined, respectively.
as §1

Row | Structure (SMILES) | inhibition at 1 µM (prolyl endopeptidase) | IC50 (prolyl endopeptidase) | inhibition at 1 µM (trypsin) | inhibition at 1 µM (chymotrypsin) | Inhibition rate, leucine aminopeptidase (leucine aminopeptidase) | inhibition at 1 µM (elastase) | inhibition at 1 µM (cathepsin B)
1 | CC(=O)ON=C[C@@H]1CCCN1C(=O)CCC(=O)NCc1ccc(Cl)cc1 [Compound 21, (2S)-1-[4-Oxo-4-(4-chlorobenzylamino)butanoyl]-2-pyrrolidinecarboxaldehyde O-acetyloxime] | 100% | 40 nM | 10% | 0% | 0% | 0% | 0%
2 | N#C[C@@H]1CCCN1C(=O)CCC(=O)NCc1ccc(Cl)cc1 [Compound 22, (2S)-1-[4-Oxo-4-(4-chlorobenzylamino)butanoyl]-2-cyanopyrrolidine] | 100% | 10 nM | 0% | 0% | 0% | 0% | 0%
